Like-named read-outs stand apart in the source and are kept apart here.
Key:
[1] = tested on: HepG2 liver cancer cell line; assay: Resazurin Cell Growth Inhibition Assay, HepG2; assay type: cell-based, human
Method: (§1) Compounds 1–4 were assessed for their in vitro cytotoxic activity against three human cell lines i.e., breast (MCF-7), liver (HepG2), colon (HCT-116) cancer cell lines as well as in lung fibroblast (WI38) normal cell line using the Resazurin Cell Growth Inhibition Assay. Both erlotinib and 5-Fluorouracil (5-FU) were used as reference drugs. Concentrations of the tested compounds that give about 50% inhibition of cell viability (IC50, mean of triplicate) in µM were obtained. […] However, if replaced by a hydrazone substituent, a more prominent efficacy toward the three cancer cell lines was observed. […] The most promising in vitro antiproliferative activity was obtained when the hydrazone is bearing electron-withdrawal groups i.e., 4-chlorobenzylidene moiety (compound 3f), 3,4-dichloro benzylidene moiety (compound 3g) and 4-fluorobenzylidene moiety (compound 3h) compared to the standard treatment (Table 1, Figure 5). The inhibitory activity of compounds was reduced when the hydrazone group is bearing electron donating groups i.e., 4-methyl group (compound 3b), 2-methoxy group (compound 3c), 4-hydroxy (compound 3d) and 4-dimethylamino group (compound 3e). The trend of antiproliferative activity of compounds […] against all tested cell lines has the following descending order: (3g > 3h >3f >3a >3b > 3c > 3d > 3e). […]. […] This is mainly because this compound has the highest lipophilicity as well as less electron density as it has 2-Cl atoms (more electronegativity) on the indolyl pyrimidine-thiazolidinone.
(§2) In vitro cytotoxicity was measured according to the Resazurin Cell Growth Inhibition Assay Alamar Blue or Resazurin (Promega, Mannheim, Germany) reduction assay was used to assess the cytotoxicity of the studied samples. The assay tests cellular viability and mitochondrial function. Briefly, adherent cells were grown in tissue culture flasks, and then harvested by treating the flasks with 0.025% trypsin and 0.25 mM EDTA for 5 min. Once detached, cells were washed, counted, and an aliquot (5 × 10^3 cells) were placed in each well of a 96-well cell culture plate in a total volume of […]. Cells were allowed to attach overnight and then treated with samples. […]. Each assay was performed as triplicates. […] […]. The viability was compared based on a comparison with untreated cells. IC50 (on cancer cells) were the concentration of sample required to inhibit 50% of the cell proliferation and were calculated from a calibration curve by a linear regression using Microsoft Excel.

[2] = Resazurin Cell Growth Inhibition Assay, WI38 normal cells; assay type: cell-based; conditions: human, WI38 normal lung fibroblast cells, WI-38 normal cells, mean ± SD of three experiments, read-out: Cytotoxic Activity IC50
Method: as §1, §2

[3] = tested on: MCF-7 breast cancer cell line; assay: Resazurin Cell Growth Inhibition Assay, MCF-7; assay type: cell-based; conditions: Homo sapiens, MCF7; MCF-7, 48 h, mean ± SD of three experiments; read-out: Cytotoxic Activity IC50
Method: as §1, §2

[4] = tested on: HCT-116 colon cancer cell line; assay: Resazurin Cell Growth Inhibition Assay, HCT-116; assay type: cell-based, human
Method: as §1, §2

EGFR kinase = EGFR kinase (Homo sapiens, UniProt P00533); assay: In vitro EGFR inhibitory assay (EnzyChrom Kinase Assay Kit EKIN-400); conditions: for inhibition at 10 µM: read-out: % Inhibition of EGFR
Sequence of EGFR kinase (P00533 25-1210): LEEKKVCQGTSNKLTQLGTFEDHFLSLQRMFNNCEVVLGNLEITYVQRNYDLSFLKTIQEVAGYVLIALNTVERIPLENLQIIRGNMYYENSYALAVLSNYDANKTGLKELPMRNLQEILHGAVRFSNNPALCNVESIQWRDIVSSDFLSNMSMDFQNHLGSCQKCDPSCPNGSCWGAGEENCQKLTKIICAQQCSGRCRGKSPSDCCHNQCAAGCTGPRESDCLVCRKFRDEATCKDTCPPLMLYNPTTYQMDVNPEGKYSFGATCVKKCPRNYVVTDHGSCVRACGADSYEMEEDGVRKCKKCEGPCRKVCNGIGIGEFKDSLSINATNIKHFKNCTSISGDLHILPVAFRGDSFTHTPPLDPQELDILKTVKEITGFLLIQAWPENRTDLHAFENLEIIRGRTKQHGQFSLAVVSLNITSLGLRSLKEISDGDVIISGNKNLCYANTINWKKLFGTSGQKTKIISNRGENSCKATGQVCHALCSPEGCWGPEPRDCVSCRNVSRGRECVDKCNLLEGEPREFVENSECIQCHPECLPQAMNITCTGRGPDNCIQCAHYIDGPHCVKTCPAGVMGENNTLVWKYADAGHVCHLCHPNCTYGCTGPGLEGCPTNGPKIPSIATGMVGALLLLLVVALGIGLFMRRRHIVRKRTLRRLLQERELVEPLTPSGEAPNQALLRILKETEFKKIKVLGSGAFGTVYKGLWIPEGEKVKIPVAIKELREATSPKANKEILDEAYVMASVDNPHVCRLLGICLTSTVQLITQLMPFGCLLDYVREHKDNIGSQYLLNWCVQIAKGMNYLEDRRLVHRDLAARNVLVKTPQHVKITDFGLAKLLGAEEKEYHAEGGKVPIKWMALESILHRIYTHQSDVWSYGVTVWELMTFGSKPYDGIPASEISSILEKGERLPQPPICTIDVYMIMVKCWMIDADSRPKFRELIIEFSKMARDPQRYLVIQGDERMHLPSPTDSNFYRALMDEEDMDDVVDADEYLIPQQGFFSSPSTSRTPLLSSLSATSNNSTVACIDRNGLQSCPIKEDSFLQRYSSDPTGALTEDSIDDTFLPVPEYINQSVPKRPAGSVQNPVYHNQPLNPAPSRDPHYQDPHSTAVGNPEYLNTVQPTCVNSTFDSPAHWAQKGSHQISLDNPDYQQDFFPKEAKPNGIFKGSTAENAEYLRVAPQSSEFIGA
Method: A first-generation EGFR inhibitor, erlotinib, was used as standard treatment. […] IC50 for these compounds was determined. […] In addition, 20 µL reaction mixture containing the EGFR kinase, ATP, and substrate in the provided assay buffer. Set up a blank control that contains ATP and substrate but no enzyme. Incubate at desired temperature for 30 min. Prepare 900 µL 10µM (adenosine diphosphate) ADP premix by mixing 3 µL of 3 mM standard and 897 µL distilled water. Transfer 20 µL standards into separate wells of the plate. Prepare enough working reagent for each well. Add 40 µL working reagent to each assay well. Tap plate to mix. Incubate at room temperature for 10 min. Read fluorescence intensity at λexc = 530nm and λem = 590 nm, and then calculate kinase activity.

[5] = tested on: Ehrlich ascites carcinoma (EAC); assay: In vivo antitumor assay in EAC tumor bearing mice; conditions: 0.5 mg/mouse for nine days; for Tumor Volume: ascitic fluid; for MST (mean survival time): mean of two experiments; for Viable Tumor Cell Count: trypan blue
Method: The antitumor activity of these compounds was assessed by the change in tumor volume, viable cell count, mean survival time (MST) and % increase in lifespan (% ILS) of the EAC tumor bearing mice and 5-FU (standard treatment). The mean survival time (MST) and % increase in lifespan (% ILS) of EAC tumor bearing mice, as well as the influence of these compounds on viable tumor cells and the tumor volume, are shown in Table 2. The hematological profile of these mice was also assessed in comparison with the standard treatment with 5-FU, and no obvious effect on RBCs or WBCs was observed. […] MST = (day of first death + day of last death)/2 %ILS = [(MST of treated group/MST of control group) − 1] × 100 […]
In vivo antitumor evaluation was carried out as previously reported (see Supplementary Materials).
2. Biological Evaluation Details: a) In vivo antitumor assay: Materials . Adult Swiss male mice (weighing 20 -25 g) were obtained from the Department of Pharmacology, Faculty of Pharmacy, Mansoura University, Egypt.
They were kept in microlon boxes at temperature 25 ± 2 °C with a regular 12 hrs light/dark cycle. In addition, food and water were available. EAC cells (procured from NCI, Cairo, Egypt) were harvested and prepared, then their total number was counted.
Procedure. 7 Groups of mice ( n = 4) were used.
Group 1: Negative control (no EAC cells) - received normal saline.
Group 2: Positive control (EAC cells) - received normal saline.
Group 3: EAC cells - treated with compound 3g (0.5 mg/mouse).
Group 4: EAC cells - treated with compound 4f (0.5 mg/mouse).
Group 5: EAC cells - treated with compound 4g (0.5 mg/mouse).
Group 6: EAC cells - treated with compound 4h (0.5 mg/mouse).
Group 7: EAC cells - treated with 5-fluorouracil (0.5 mg/mouse).
2 x 10^6 EAC cells were injected intraperitoneally in each mouse (groups 2-7). After […]
for nine days, then blood samples were withdrawn for assessment of blood count.
Determination of tumor volume
The ascetic fluid was gathered from the peritoneal cavity and its volume was determined. It was then centrifuged, and the packed tumor cell volume was measured.
Determination of viable tumor cell count
100 μL Sample of EAC cells (from three mice per group) was utilized and diluted twenty times with saline. Cells were stained with trypan blue, viable cells are not stained, while the dead ones are stained. The number of viable cells was calculated.

[6] = Homo sapiens, HepG2, 48 h, mean ± SD of three experiments, read-out: Cytotoxic Activity IC50
[7] = Homo sapiens, HCT-116, 48 h, mean ± SD of three experiments, read-out: Cytotoxic Activity IC50

Compound | IC50 [1, 6] | IC50 at 48 h [2] | IC50 [3] | IC50 [4, 7] | melting point | IC50 (EGFR kinase) | inhibition at 10 µM (EGFR kinase) | Tumor Volume [5] | MST (mean survival time) [5] | Viable Tumor Cell Count [5] | IC50 ([1]; Homo sapiens; HepG2, 48 h, mean ± SD of three experiments; read-out: Cytotoxic Activity IC50) | IC50 ([4]; Homo sapiens; HCT-116, 48 h, mean ± SD of three experiments; read-out: Cytotoxic Activity IC50)
CC1=C(C(=O)N/N=C/c2ccccc2)C(c2c[nH]c3ccccc23)NC(=S)N1 (stereo not drawn) [Compound 3a] | 19.2 ± 1.5 µM | 38.2 ± 2.1 µM | 17 ± 1.8 µM | 15.2 ± 2.32 µM | – | – | – | – | – | – | – | –
CC1=C(C(=O)NN=Cc2ccc(C)cc2)C(c2c[nH]c3ccccc23)NC(=S)N1 (stereo not drawn) [Compound 3b, 4-(1H-indol-3-yl)-6-methyl-2-thioxo-1,2,3,4-tetrahydropyrimidine-5-carboxylic acid (4-methyl-benzylidene)-hydrazide] | 19.4 ± 2.19 µM | 39.1 ± 1.3 µM | 18.5 ± 2.11 µM | 15.6 ± 3.15 µM | 240 to 242 °C | – | – | – | – | – | – | –
COc1ccccc1/C=N/NC(=O)C1=C(C)NC(=S)NC1c1c[nH]c2ccccc12 (stereo not drawn) [Compound 3c, 4-(1H-indol-3-yl)-6-methyl-2-thioxo-1,2,3,4-tetrahydropyrimidine-5-carboxylic acid (2-methoy-benzylidene)-hydrazide] | 19.9 ± 2.06 µM | 37.4 ± 1.49 µM | 18.9 ± 2 µM | 16.3 ± 4.16 µM | 220 to 222 °C | – | – | – | – | – | – | –
CC1=C(C(=O)N/N=C/c2ccccc2O)C(c2c[nH]c3ccccc23)NC(=S)N1 (stereo not drawn) [Compound 3d] | 20.2 ± 2.33 µM | 35.3 ± 2.42 µM | 19.2 ± 2.35 µM | 16.6 ± 1.27 µM | – | – | – | – | – | – | – | –
CC1=C(C(=O)NN=Cc2ccc(N(C)C)cc2)C(c2c[nH]c3ccccc23)NC(=S)N1 (stereo not drawn) [Compound 3e, 4-(1H-indol-3-yl)-6-methyl-2-thioxo-1,2,3,4-tetrahydropyrimidine-5-carboxylic acid (4-dimethylamino-benzylidene)-hydrazide] | 20.4 ± 2.3 µM | 40 ± 2.31 µM | 19.8 ± 2.7 µM | 16.2 ± 1.15 µM | 180 to 182 °C | – | – | – | – | – | – | –
CC1=C(C(=O)N/N=C/c2ccc(Cl)cc2)C(c2c[nH]c3ccccc23)NC(=S)N1 (stereo not drawn) [Compound 3f] | 10.6 ± 2.32 µM | 29.8 ± 1.51 µM | 10.7 ± 2.3 µM | 10.2 ± 1.18 µM | – | – | – | – | – | – | – | –
CC1=C(C(=O)NN=Cc2ccc(Cl)c(Cl)c2)C(c2c[nH]c3ccccc23)NC(=S)N1 (stereo not drawn) [Compound 3g, 4-(1H-indol-3-yl)-6-methyl-2-thioxo-1,2,3,4-tetrahydropyrimidine-5-carboxylic acid (3,4-dichloro-benzylidene)-hydrazide] | 10 ± 2.46 µM | 30 ± 3.72 µM | 9 ± 2.4 µM | 8.5 ± 2.3 µM | – | 0.5 ± 0.04 µM | 53% | 2.97 mL | 30 days | 48.00 10^6/mL | – | –
CC1=C(C(=O)N/N=C/c2ccc(F)cc2)C(c2c[nH]c3ccccc23)NC(=S)N1 (stereo not drawn) [Compound 3h] | 10.4 ± 2.08 µM | 28.1 ± 4.22 µM | 10.2 ± 2.01 µM | 10.1 ± 2.45 µM | – | – | – | – | – | – | – | –
CC1=C(C(=O)NN2C(=O)CSC2c2ccccc2)C(c2c[nH]c3ccccc23)NC(=S)N1 (stereo not drawn) [Compound 4a, 4-(1H-indol-3-yl)-6-methyl-N-(4-oxo-2-phenylthiazolidin-3-yl)-2-thioxo-1,2,3,4-tetrahydropyrimidine-5-carboxamide] | 17 ± 4.3 µM | 38 ± 5.51 µM | 11.2 ± 4.31 µM | 12.3 ± 2.17 µM | 270 to 272 °C | – | – | – | – | – | – | –
CC1=C(C(=O)NN2C(=O)CSC2c2ccc(C)cc2)C(c2c[nH]c3ccccc23)NC(=S)N1 (stereo not drawn) [Compound 4b, 4-(1H-indol-3-yl)-6-methyl-N-(4-oxo-2-(p-tolyl)thiazolidin-3-yl)-2-thioxo-1,2,3,4-tetrahydropyrimidine-5-carboxamide] | 18 ± 3.2 µM | 39.8 ± 4.51 µM | 11.6 ± 3.22 µM | 12.6 ± 1.05 µM | 220 to 222 °C | – | – | – | – | – | – | –
COc1ccccc1C1SCC(=O)N1NC(=O)C1=C(C)NC(=S)NC1c1c[nH]c2ccccc12 (stereo not drawn) [Compound 4c, 4-(1H-indol-3-yl)-N-(2-(2-methoxyphenyl)-4-oxothiazolidin-3-yl)-6-methyl-2-thioxo-1,2,3,4-tetrahydropyrimidine-5-carboxamide] | 18.5 ± 4.38 µM | 29.5 ± 4.02 µM | 12.3 ± 4.08 µM | 13.2 ± 1.03 µM | 200 to 202 °C | – | – | – | – | – | – | –
CC1=C(C(=O)NN2C(=O)CSC2c2ccccc2O)C(c2c[nH]c3ccccc23)NC(=S)N1 (stereo not drawn) [Compound 4d, N-(2-(2-hydroxyphenyl)-4-oxothiazolidin-3-yl)-4-(1H-indol-3-yl)-6-methyl-2-thioxo-1,2,3,4-tetrahydropyrimidine-5-carboxamide] | 18.7 ± 1.2 µM | 29.9 ± 3.63 µM | 12.6 ± 1.7 µM | 13.6 ± 1.09 µM | 180 to 182 °C | – | – | – | – | – | – | –
CC1=C(C(=O)NN2C(=O)CSC2c2ccc(N(C)C)cc2)C(c2c[nH]c3ccccc23)NC(=S)N1 (stereo not drawn) [Compound 4e, N-(2-(4-(dimethylamino)phenyl)-4-oxothiazolidin-3-yl)-4-(1H-indol-3-yl)-6-methyl-2-thioxo-1,2,3,4-tetrahydropyrimidine-5-carboxamide] | 18.6 ± 0.94 µM | 20.2 ± 5.52 µM | 14.2 ± 0.74 µM | 13.7 ± 0.55 µM | 170 to 172 °C | – | – | – | – | – | – | –
CC1=C(C(=O)NN2C(=O)CSC2c2ccc(Cl)cc2)C(c2c[nH]c3ccccc23)NC(=S)N1 (stereo not drawn) [Compound 4f, N-(2-(4-chlorophenyl)-4-oxothiazolidin-3-yl)-4-(1H-indol-3-yl)-6-methyl-2-thioxo-1,2,3,4-tetrahydropyrimidine-5-carboxamide] | 8.9 ± 1.73 µM | 19.3 ± 5.87 µM | 8.01 ± 1.83 µM | 8.02 ± 0.26 µM | – | 0.38 ± 0.02 µM | 71% | 2.50 mL | 37 days | 40.70 10^6/mL | – | –
O=c1[nH]cc(F)c(=O)[nH]1 [Compound 5-FU, 5-Fluorouracil, reference compound] | – | 5.7 ± 1.5 µM | 5.38 ± 0.24 µM | – | – | – | – | 0.80 mL | 53.0 days | 19.07 10^6/mL | 5.34 ± 0.4 µM | 7.88 ± 0.2 µM
C#Cc1cccc(Nc2ncnc3cc(OCCOC)c(OCCOC)cc23)c1 [erlotinib, reference compound] | – | 22.5 ± 0.65 µM | 6.65 ± 0.82 µM | 7.49 ± 0.65 µM | – | – | – | – | – | – | – | –
